According to patent publication US20240277711A1, “COMPOUNDS FOR THE TREATMENT OF GLIOBLASTOMA” (Merck Patent GmbH, priority 2021, published 2024):

What was measured:
[1] = system: mouse glioma cell lines; assay: Acute growth inhibition assay (MTT) in mouse glioma cell lines; format: cell-based; settings: concentrations up to 1 μM
[2] = system: murine glioma cell invasiveness; assay: Murine glioma cell invasiveness in vitro without or with irradiation; format: cell-based, mouse; settings: without or with irradiation (2 Gy, 8 Gy)
Description: Next, we evaluated the motogenic activity of HGF/MET in response to irradiation in vitro. Low-dose irradiation (2 Gy) increased invasiveness in SMA-540 and SMA-560 cells whereas high-dose irradiation (8 Gy) reduced invasiveness in SMA-497 and SMA-560 cells.

[3] = system: mouse cytokines; assay: Proteome profiler cytokine array of SMA-560 tumor lysates ex vivo; format: in vivo
Protocol: In A, raw data are expressed as pixel density measured by Image J. In B, fold-changes indicate down-regulation (left) or up-regulation (right) versus control tumors. A difference down or up of 2-fold versus control was used as cut-off to assign a target to any group.
For the simultaneous determination of relative levels of mouse cytokines in vivo, the Mouse XL Cytokine Array Kit from R&D Systems was used (ARY028, Minneapolis, MN). Tissue lysates were prepared by electric homogenizer in ice-cold lysis buffer and supplemented with protease inhibitor cocktail, followed by centrifugation to remove cellular debris; 150 μg protein was used for each tumor sample and nitrocellulose membrane (control, monotherapies, combination therapy). To compare the proportion of protein levels in each tumor specimen, the quantification of pixel density of each spot of the array was performed using Image J (version 1.32j) software (National Institutes of Health, Bethesda, MD, http://rsb.info.nih.gov/ij/).

[4] = system: HGF-dependent U87MG tumors; settings: before tumor became resistant and progressed; cited from earlier work
[5] = system: glioma cells; assay: Sensitization to irradiation in vitro (clonogenic survival); format: cell-based, mouse
[6] = system: GL-261 glioma; assay: Orthotopic syngeneic GL-261 glioma model in wildtype mice; format: in vivo, mouse
Protocol: (§1) Kaplan-Meier survival curves are shown. B, C. […] B. Kaplan-Meier survival curves were analyzed via log-rank test. C. Mice surviving in (B) were re-challenged after 13 weeks after initial tumor cell injection with GL-261 cell implantation into the contralateral hemisphere. Naïve mice implanted with GL-261 cells were used as controls. Kaplan-Meier survival curves are shown. D, E. GL-261 met knock-out cells were intracranially implanted into wildtype C57/B16 mice (D) or GL-261 wildtype cells were intracranially implanted into C57/B16 Rag1−/− mice (E). […] F. Analysis of median survival between treatment groups.
(§2) All in vitro and in vivo experiments reported here were performed in biological replicates, i.e., in independent experiments and with different passage numbers of cell lines. Statistical significance was assessed by two-sided unpaired t-test or two-way ANOVA with Bonferroni post-testing (GraphPad Prism). Tumor size was analyzed using the Mann-Whitney U non-parametric test. Survival was analyzed using a Kaplan-Meier survival plot followed by a log-rank (Mantel-Cox) test. Differences were considered statistically significant when the p value was below 0.05.

[7] = system: ligand-independent Hs746T tumors; settings: before tumor became resistant and progressed; cited from earlier work
[8] = system: SMA-560 gliomas; assay: SMA-560 glioma in immunodeficient Rag1−/− mice; format: in vivo, mouse; settings: tepotinib 100 mg/kg daily + 10 Gy
[9] = system: GL-261 glioma; assay: GL-261 glioma in Rag1−/− mice; format: in vivo, mouse; settings: tepotinib + 10 Gy
Protocol: as §1, §2

[10] = system: SMA-560 gliomas; assay: Orthotopic syngeneic SMA-560 glioma model in vivo (survival, histology); set-up: species or system mouse
Protocol: B. Kaplan-Meier survival curve. C. […] Sections were counterstained with hematoxylin (blue).
Sections (8 μm thick) of tumor-bearing cryopreserved brains were prepared. The mean tumor size was determined by the largest tumor area in the horizontal plane on hematoxylin and eosin (H&E)-stained sections by multiplying the longest perpendicular diameters from a low-magnification (2.5×) image. Brain sections were immunostained with Ki-67 antibody (clone SP6, Epitomics, Burlingame, CA), anti-mouse CD31 antibody (clone MEC 13.3, BD Pharmingen, Franklin Lakes, NJ), anti-CD45 antibody (clone 30-F11; BioLegend), anti-CD3 (clone 17A2; BD Biosciences, San Jose, CA) or anti-CD11b (clone M1/70; BD Biosciences) and histofine simple stain mouse max pro anti-rabbit secondary antibody (Nichirei Biosciences, Tokyo, Japan) to determine proliferation. Anti-rat N-Histofine Simple Stain Mouse MAX PO (Nichirei Biosciences) and DAB chromogen were used to stain blood vessels. The percentage of Ki-67-positive tumor nuclei and the mean number of CD31-positive intratumoral vessels per high power field (×40 objective) were calculated using three randomly selected different microscopic fields of each section for three 3 mice per group. Alternatively, DAB-positive signals were quantified using the ImageJ software (https://imagej.nih.gov/) (Crowe and Yue, 2019).
as §2

[11] = system: GL-261 met knock-out cells; assay: GL-261 met knock-out glioma in wildtype mice; format: in vivo, mouse; settings: MET disrupted in tumor, tepotinib + 10 Gy
Protocol: as §1
Knockout clones were generated as described (Ran et al., 2013; Machado et al., 2019). Briefly, two MET-specific guide RNAs (5′-[…]-3′ and 5′-[…]-3′) were cloned into pSpCas9(BB)-2A-GFP and lipofectamine (Thermo) was used to co-transfect both plasmids. […]
as §2, with “Differences were considered statistically significant when the p value was below 0.05.” left out

[12] = system: mouse glioma cell lines; assay: Clonogenic survival (clonogenicity) assay in mouse glioma cell lines; format: cell-based; settings: concentrations up to 1 μM
[13] = system: glioblastoma; settings: in vivo; cited from earlier work
[14] = combination group (tepotinib + radiotherapy)

## CN1CCC(COc2cnc(-c3cccc(Cn4nc(-c5cccc(C#N)c5)ccc4=O)c3)nc2)CC1 [tepotinib, 3-(1-{3-[5-(1-methyl-piperidin-4-ylmethoxy)-pyrimidin-2-yl]-benzyl}-6-oxo-1,6-dihydro-pyridazin-3-yl)-benzonitrile]
[1]
  acute growth inhibition: resistant to inhibitory effects of tepotinib
[2]
  invasiveness: suppressed invasiveness in all cell lines without or with irradiation, except in low dose-irradiated SMA-540 cells
[3]; combination with irradiation
  irradiation-induced cytokines (VEGF, ICAM-1, MMP-2/-9, IL-1a, CXCL10 etc.): an induction upon irradiation that was attenuated by tepotinib
[3]; tepotinib monotherapy
  cytokine levels in tumor tissue lysates: reduced the levels of some cytokines
[4]
  tumor growth inhibition and regression: Tumor growth inhibition and regression of tumors by tepotinib was temporarily observed
[5]; concentrations known to inhibit MET phosphorylation (100 nM)
  sensitization to inhibitory effects of irradiation in vitro: failed to sensitize glioma cells to the inhibitory effects of irradiation
[5]; with exogenous HGF (50 ng/ml)
  sensitization to irradiation in presence of exogenous HGF: no sensitization to irradiation by tepotinib became apparent
[6]; co-treatment group
  long-term survivors: approximately 50%
[6]; combination therapy (tepotinib + 10 Gy), wildtype mice
  survival: prominent survival prolongation
[6]; rechallenge at 90 days, followed another 50 days
  outcome of rechallenge of long-term survivors with GL-261 cells: all 4 animals remained asymptomatic
[7]
  tumor growth inhibition and regression: Tumor growth inhibition and regression of tumors by tepotinib was temporarily observed
[8]
  synergistic effect of combination therapy on survival: strongly attenuated
[9]
  synergy of irradiation with tepotinib: synergy with tepotinib was lost
[10]; combination arm (tepotinib + radiotherapy)
  reduction in CD31 immunoreactivity: 2.8 fold
[10]; [14]
  Ki-67-positive cells: strong decrease of Ki-67-positive cells
  mice alive and free from tumor at day 80: three
[10]; combination with radiotherapy (single dose 12 Gy)
  survival: around 60 days
[10]; monotherapy
  survival: around 20 days
[10]; monotherapy arm
  reduction in CD31 immunoreactivity: 1.8 fold
[10]; monotherapy group
  percentage of Ki-67-stained nuclei: remained unaffected
[10]; tepotinib alone, 100 mg/kg daily
  effect on survival: Neither tepotinib alone nor radiotherapy alone had a significant effect on survival
[10]; tepotinib group
  mice alive and free from tumor at day 80: one
[11]
  synergy of irradiation with tepotinib: synergy was also lost
[12]
  clonogenicity: resistant to inhibitory effects of tepotinib

## onartuzumab: MET antibody
[13]
  efficacy outcome in glioblastoma: negative outcomes

## AMG-102: HGF antibody
[13]
  efficacy outcome in glioblastoma: negative outcomes
